Experimental data reported in a melting point compilation (Tetko et al.; mined from patent text by program, amines drawn as free bases though some values may be those of a salt).

| Structure (SMILES) | melting point [°C] |
| --- | --- |
| O=C(O)CCCCCCCNS(=O)(=O)c1cccc(Cl)c1 | 85 to 86 |
| Cc1cnc(NC(=O)C(C)C)o1 | 109 to 110 |
| CC(C)(C)[Si](C)(C)Oc1ccc(-c2ccccc2C=C2SC(=O)NC2=O)cc1C12CC3CC(CC(C3)C1)C2 | 277 to 278 |
| CCCOCc1nc(C(C)(C)O)c(C(=O)OCCC)[nH]1 | 72 to 73 |
| CCCCCN(CCC12CC3CC(CC(C3)C1)C2)C(=O)NCCCCc1ccncc1 | 74.1 to 78.1 |
| CC1(C)C=C(c2cccnc2)c2cc(C#N)ccc2OC1 | 150 |
| CN1C(=O)CN(C2=CC(C)(C)Oc3ccc(C#N)cc32)C1=O | 188 to 190 |
| O=C(O)CCCC=C1CCCCCCCCCCC1 | 70 to 72 |
| OC1Cc2ccccc2Sc2cc(F)c(Cl)cc21 (stereo unspecified) | 69 to 71 |
| N#CC(C#N)=CN(Cc1ccc(Cl)c(Cl)c1)c1cc(C(F)(F)F)cc(C(F)(F)F)c1 | 102 to 103 |
| c1ccc(C(Cn2cncn2)c2ccccc2)cc1 | 107 to 108 |
| CN1C(=O)CC[C@]2(C)c3ccc(-c4ccc([N+](=O)[O-])cc4)cc3CC[C@@H]12 | 59 to 60 |
| CS(=O)(=O)c1ccc(C2=C(c3ccc(F)cc3)C(=O)C2(Cl)Cl)cc1 | 116 to 118 |
| CCN(CC)CC(O)Cn1cc(-c2ccccc2)c2ccccc2c1=O (stereo unspecified) | 106 |
| COc1ccc(CCC(=O)CCI)cc1 | 38 to 42 |
| Brc1ccc2c(c1)COC(N[C@@H]1CCc3ccccc31)=N2 | 123 |
| CCCCCCCc1cnc([C@H]2CC[C@H](CCCCC)CC2)nc1 | 22 |
| CC(C)c1cccc(-c2nscc2C(=O)O)c1 | 143 to 157 |
| COc1cc2cc(CO)nc(-c3ccnc(-n4nc(-c5cccnc5)c5ccccc5c4=O)c3)c2cc1OC | > 250 |
| Clc1ccc2c(c1)N(c1ncnc3cc4c(cc13)OCCO4)CC2 | 209 to 211 |
| COc1cc(Nc2nccc(-c3ccc(C#N)cc3)n2)cc(OC)c1OC | 183 |
| CN(C)C(=O)Oc1ccc2nc(S(N)(=O)=O)sc2c1 | 208 to 209 |
| COc1ccccc1NC(=S)NC(NC(=O)c1ccc(C)cc1)C(F)(F)F (stereo unspecified) | 212 to 214 |
| CCCCN1CCN(NC(=O)c2cc(Cl)c(N)cc2OC)CC1 | 174 |
| CC1=NC(=Cc2ccc(C#N)cc2)C(=O)O1 | 192 to 193 |
| COc1ccccc1CN=C1C2CCN(CC2)C1C(c1ccccc1)c1ccccc1 (stereo unspecified) | 154 to 158 |

| Structure (SMILES) | melting point [°C] |
| --- | --- |
| O=C(O)c1cc(Cl)c(Cl)c(S(=O)(=O)Cl)c1 | 203 |
| CC(=O)c1c(-c2ccccc2)sc(-c2ccncc2)c1C | 111 to 112 |
| CCNc1cccnc1N1CCN(C(=O)c2ccc(C(=O)N3CCN(CCO)CC3)cc2)CC1 | 152 to 153 |
| CCCCNc1nc2cccc(C(=O)OC)c2n1Cc1ccccc1-c1ccccc1-c1nnn[nH]1 | 216 to 218 |
| CCCc1cn(-c2cc(=O)n(-c3ccccc3)nc2C#N)nn1 | 192 to 195 |
| CC(C(=O)N(C)CCO)c1cc(C(C)(C)C)c(O)c(C(C)(C)C)c1 (stereo unspecified) | 66 |
| CC(=O)N1OCC(=O)N(CCl)C1c1ccccc1 (stereo unspecified) | 171 to 172 |
| COC(=O)C1(C(C[N+](=O)[O-])c2ccccc2)CCc2ccccc2C1=O (stereo unspecified) | 101 to 103 |
| COC(=O)c1cc(O)cc(O[C@@H](C)CO)c1 | 133 |
| Cc1csc(-c2ccc3c(c2)C=C(C(=O)Nc2ccc(CN(C)C4CCOCC4)cc2)CCO3)c1 | 147 to 148 |
| CN1CCN(S(=O)(=O)CCCOc2ccc3ncnn3n2)CC1 | 140 to 141 |
| O=C(Nc1nonc1-c1ccc(Cl)cc1)NC1CCCCC1 | 216 |
| CC(=O)Nc1ccccc1C(=O)NC(=O)Nc1ccc(Oc2ncc(Br)cn2)c(C)c1 | 186 to 191 |
| CC(C)(C)OC(=O)N(N)Cc1ccc(-c2ccccc2)cc1 | 84 to 85 |
| Cc1ccc(-c2cnc3c(N)ncnc3n2)cc1 | 315 |
| O=C1CCCCCN1C(=O)N1CCCCCC1=O | 115 |
| Cn1c2c(c3cc(F)ccc31)C(=O)NCC2 | 200 to 202 |
| O=C(O)c1ccc(C(c2ccccc2)(C(F)(F)F)C(F)(F)F)cc1 | 153 to 155 |
| CCCCOCCOc1ccc(-c2cnc(N3CCC(COC(C)=O)C3)c(/C=C(\C)C(=O)O)c2)cc1 (stereo unspecified) | 82.2 to 84.2 |
| NC(C(=O)O)c1ccc(C=CC2CC2)[nH]1 (stereo unspecified) | 275 |
| CC(C)(C)OC(=O)N1CCNC(=O)C1Sc1ccccc1 (stereo unspecified) | 138 to 140 |
| O=S(=O)(c1ccc(Br)cc1)N1C=CC=NC=C1 | 95 to 97 |
| N#CCCNC(=O)c1cccc(-c2ccc3c(c2)N(Cc2cc(Cl)ccc2Cl)CC3)c1 | 152 to 153 |
| CN1C(=S)N(c2cc(C(F)(F)F)cc(C(F)(F)F)c2)C(O)C1O (stereo unspecified) | 133 to 135 |
| O=S(=O)(Cc1nnc(-c2ccc3c(c2)CCO3)o1)c1cccc(F)c1 | 93 to 94 |
